ChEMBL document CHEMBL1201862, “PubChem BioAssay data set” (2004)
Activity calls are given as the source filed them.

Legend:
[1] = tested on: Streptococcus; test: GAS UMAA2166 growth inhibition – luminescence, BacTiterGlo, counter-screen for streptokinase expression inhibitor project, dose response (AID 1915); assay type: functional, organism-based;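 note: potency for reduction of bacterial viability or growth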
[2] = target: T1, Streptokinase A (Streptococcus pyogenes serotype M1, UniProt P10520); test: viability-normalized secreted streptokinase activity reduction – plasminogen activation absorbance, OD405, dose response (AID 1914); assay type: functional, Streptococcus pyogenes M1 GAS;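 note: secreted streptokinase activity via plasminogen activation per viability signal from cell pellet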
T1 sequence (P10520 whole entry): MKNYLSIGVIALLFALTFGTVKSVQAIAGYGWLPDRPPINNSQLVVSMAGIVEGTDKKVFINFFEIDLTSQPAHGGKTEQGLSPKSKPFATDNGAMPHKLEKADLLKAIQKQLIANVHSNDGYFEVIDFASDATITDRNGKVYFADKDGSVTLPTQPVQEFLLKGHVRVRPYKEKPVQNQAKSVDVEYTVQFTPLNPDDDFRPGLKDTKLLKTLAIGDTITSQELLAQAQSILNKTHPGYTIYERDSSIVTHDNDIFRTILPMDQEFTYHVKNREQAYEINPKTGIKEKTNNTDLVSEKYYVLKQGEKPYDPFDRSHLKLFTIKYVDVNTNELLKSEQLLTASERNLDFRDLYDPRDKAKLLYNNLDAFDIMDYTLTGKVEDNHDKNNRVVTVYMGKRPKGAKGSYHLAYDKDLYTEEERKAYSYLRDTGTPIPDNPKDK

[3] = tested on: Streptococcus sp. 'group A'; test: Streptococcus pyogenes SK(-)GAS viability under kanamycin – luminescence, BacTiterGlo, confirmation, counter-screen for streptokinase expression inhibitor project, dose response (AID 1900); assay type: functional, organism-based
[4] = target: Cytochrome P450 2C9 (Homo sapiens, UniProt P11712)
Cytochrome P450 2C9, sequence (P11712 whole entry): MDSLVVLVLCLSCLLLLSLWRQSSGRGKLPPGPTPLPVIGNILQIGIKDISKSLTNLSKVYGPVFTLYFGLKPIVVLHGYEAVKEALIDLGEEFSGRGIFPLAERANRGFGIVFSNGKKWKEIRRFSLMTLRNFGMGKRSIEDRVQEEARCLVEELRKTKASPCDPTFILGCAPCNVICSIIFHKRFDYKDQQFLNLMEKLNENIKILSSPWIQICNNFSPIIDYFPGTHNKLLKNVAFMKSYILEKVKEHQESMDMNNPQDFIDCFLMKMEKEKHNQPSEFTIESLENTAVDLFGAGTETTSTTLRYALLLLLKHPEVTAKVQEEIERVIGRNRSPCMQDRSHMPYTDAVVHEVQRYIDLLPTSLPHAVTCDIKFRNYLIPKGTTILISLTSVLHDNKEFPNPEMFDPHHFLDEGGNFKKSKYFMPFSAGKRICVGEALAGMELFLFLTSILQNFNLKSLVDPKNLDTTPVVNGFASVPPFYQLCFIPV

[5] = target: Cytochrome P450 2C19 (Homo sapiens, UniProt P33261); test: Cytochrome panel assay with activity outcomes. Panel member name: p450-cyp2c19 Compounds with AC50 equal or less than 10 uM are considered active; assay type: functional; conditions: read-out: AC50
Cytochrome P450 2C19, sequence (P33261 whole entry): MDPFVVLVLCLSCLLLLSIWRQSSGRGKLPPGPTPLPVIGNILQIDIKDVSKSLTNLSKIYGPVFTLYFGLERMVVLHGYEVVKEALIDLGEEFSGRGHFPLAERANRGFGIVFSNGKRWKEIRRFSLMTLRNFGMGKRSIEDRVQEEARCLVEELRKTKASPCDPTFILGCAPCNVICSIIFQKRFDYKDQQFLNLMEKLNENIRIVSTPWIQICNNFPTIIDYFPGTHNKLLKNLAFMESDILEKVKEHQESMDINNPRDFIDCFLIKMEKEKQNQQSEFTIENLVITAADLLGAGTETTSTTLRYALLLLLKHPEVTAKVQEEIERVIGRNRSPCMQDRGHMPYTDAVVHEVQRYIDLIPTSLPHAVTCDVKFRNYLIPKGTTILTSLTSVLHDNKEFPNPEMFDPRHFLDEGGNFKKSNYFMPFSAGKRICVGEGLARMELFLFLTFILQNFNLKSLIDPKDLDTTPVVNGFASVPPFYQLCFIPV

[6] = target: T2, Cytochrome P450 1A2 (Homo sapiens, UniProt P05177);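 note: PubChem cytochrome P450 panel assay, CYP1A2 panel member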
T2 sequence (P05177 whole entry): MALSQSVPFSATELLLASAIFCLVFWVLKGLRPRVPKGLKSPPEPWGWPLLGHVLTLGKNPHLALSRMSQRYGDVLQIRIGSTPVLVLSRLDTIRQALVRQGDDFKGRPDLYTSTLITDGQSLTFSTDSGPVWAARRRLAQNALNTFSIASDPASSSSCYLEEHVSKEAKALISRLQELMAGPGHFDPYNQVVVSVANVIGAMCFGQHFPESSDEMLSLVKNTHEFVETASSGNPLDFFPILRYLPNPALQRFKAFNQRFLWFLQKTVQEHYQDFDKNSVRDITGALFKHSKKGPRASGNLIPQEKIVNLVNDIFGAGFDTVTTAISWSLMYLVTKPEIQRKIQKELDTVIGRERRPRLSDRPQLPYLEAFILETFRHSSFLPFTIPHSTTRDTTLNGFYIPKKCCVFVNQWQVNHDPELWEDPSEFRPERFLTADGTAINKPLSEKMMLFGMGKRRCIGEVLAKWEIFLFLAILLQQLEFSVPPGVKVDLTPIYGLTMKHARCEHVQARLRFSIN

[7] = tested on: H4; test: Luminescence Cell-Based Dose Response HTS to Identify Activators of 5'UTR Stem-Loop Driven Prion Protein mRNA Translation in H4 Neuroglioblastoma Cells. [Related pubchem assays: 1829 (Project Summary), 1814 (Primary HTS)]; assay type: functional; conditions: Homo sapiens
[8] = Luminescence Cell-Based Dose Response HTS to Identify Activators of Luciferase Translation or Activity in H4 […] Cells. [Related pubchem assays: 1829 (Project Summary), 1814 (Primary HTS)]; assay type: functional
[9] = NIH3T3 cell viability loss – ATP luminescence, mouse fibroblasts, counter-screen, dose response (AID 2010); assay type: functional, cell-based;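 note: cells exposed to compound for about 90 hours before reading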
[10] = Trypanosoma cruzi growth suppression in host cells – NIH3T3 host cells, beta-gal luminescence, confirmation (AID 2044); assay type: functional, cell-based;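 note: intracellular parasites grown in NIH/3T3 mouse fibroblasts as host cells; luminescent beta-galactosidase reporter signal from transgenic T. cruzi replicating inside host cells; inhibitors lower the luminescence signal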
[11] = target: T3, Corticotropin-releasing factor receptor 2/Corticotropin-releasing factor-binding protein (Homo sapiens, UniProt P24387+Q13324); test: activators of CRF receptor 2 with binding protein – uHTS hits, confirmation (AID 602473); assay type: functional; conditions: read-out: EC50_Mean
T3 sequence (Q13324 whole entry): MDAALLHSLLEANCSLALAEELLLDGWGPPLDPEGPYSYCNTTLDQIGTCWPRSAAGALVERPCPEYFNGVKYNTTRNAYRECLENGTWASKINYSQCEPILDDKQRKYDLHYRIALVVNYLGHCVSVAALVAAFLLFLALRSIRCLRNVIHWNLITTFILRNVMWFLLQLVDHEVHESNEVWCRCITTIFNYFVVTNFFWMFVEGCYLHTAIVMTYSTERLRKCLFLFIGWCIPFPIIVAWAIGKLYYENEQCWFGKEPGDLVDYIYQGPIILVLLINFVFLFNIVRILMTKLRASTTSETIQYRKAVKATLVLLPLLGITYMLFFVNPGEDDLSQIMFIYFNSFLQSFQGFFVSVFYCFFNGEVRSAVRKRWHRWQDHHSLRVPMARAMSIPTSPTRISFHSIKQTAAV
T3 sequence (P24387 whole entry): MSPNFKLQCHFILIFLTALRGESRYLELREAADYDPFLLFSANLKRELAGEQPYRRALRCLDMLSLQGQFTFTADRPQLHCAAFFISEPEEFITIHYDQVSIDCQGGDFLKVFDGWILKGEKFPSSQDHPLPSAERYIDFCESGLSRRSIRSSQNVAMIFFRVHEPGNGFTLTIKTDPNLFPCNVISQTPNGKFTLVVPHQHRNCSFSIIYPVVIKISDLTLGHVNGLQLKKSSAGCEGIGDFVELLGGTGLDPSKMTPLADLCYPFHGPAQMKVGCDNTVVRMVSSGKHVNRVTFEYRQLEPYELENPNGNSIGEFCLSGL

[12] = target: Cytochrome P450 3A4 (Homo sapiens, UniProt P08684);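 note: CYP3A4 tested as one member of a cytochrome P450 panel screen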
Cytochrome P450 3A4, sequence (P08684 whole entry): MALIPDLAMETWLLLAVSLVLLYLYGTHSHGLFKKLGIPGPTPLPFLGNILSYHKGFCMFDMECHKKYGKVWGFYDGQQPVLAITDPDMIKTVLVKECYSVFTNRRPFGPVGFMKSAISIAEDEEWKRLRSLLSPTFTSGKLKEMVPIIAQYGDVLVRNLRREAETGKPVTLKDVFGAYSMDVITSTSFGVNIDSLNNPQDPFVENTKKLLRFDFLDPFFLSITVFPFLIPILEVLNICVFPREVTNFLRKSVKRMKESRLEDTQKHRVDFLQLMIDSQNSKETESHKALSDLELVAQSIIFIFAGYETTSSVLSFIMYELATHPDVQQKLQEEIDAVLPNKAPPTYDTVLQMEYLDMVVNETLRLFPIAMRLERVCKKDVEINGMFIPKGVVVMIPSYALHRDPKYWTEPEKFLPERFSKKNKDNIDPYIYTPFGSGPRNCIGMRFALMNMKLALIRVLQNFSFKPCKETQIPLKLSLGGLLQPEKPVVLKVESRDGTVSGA

In the case of `O=C(O)CSc1nnc(Cn2c(=O)sc3ccccc32)n1-c1cccc(Cl)c1`, the EC50 [1] was > 150 µM (not active), the EC50 [2] was > 150 µM (not active) and the EC50 [3] was > 150 µM (not active).

With `COc1cccc(Cn2c(=O)c(-c3ccc(Cl)cc3)nc3cnc(OC)nc32)c1` the AC50 [4] was 7.94 µM (inconclusive) and the AC50 [5] was 1.26 µM (inconclusive).

In the case of `Cc1ccccc1C(=O)c1cccn1CC(=O)NCc1ccco1`, the AC50 [6] was 10 µM (inconclusive).

For `O=C(CSc1nnc(-c2cccnc2)o1)Nc1ccccn1`, the EC50 [7] was > 120 µM (not active) and the EC50 [8] was 14.5 µM (active).

For `COc1ccccc1C(=O)Nc1nnc(S(=O)(=O)N2CCN(c3ccc(F)cc3)CC2)s1`, the EC50 [1] was 119 µM (inconclusive), the EC50 [2] was > 50 µM (not active) and the EC50 [3] was 20.1 µM (active).

For `C=CCn1c(SCC(=O)N2CC(=O)Nc3ccccc32)nc2scc(-c3ccccc3)c2c1=O`, the AC50 [6] was 14.1 µM (inconclusive).

In the case of `COc1ccc(CNC(=O)CN(Cc2ccccc2)S(=O)(=O)c2ccc(Cl)cc2)cc1`, the EC50 [9] was > 60 µM (not active) and the EC50 [10] was 3.15 µM (active).

In the case of `O=C(C1CCCCC1)N(CCN1CCCC1)c1nc2ccccc2s1`, the EC50 [9] was > 60 µM (not active) and the EC50 [10] was 0.78 µM (active).

For `Fc1ccc(/C=C\c2[nH]ccc3c4ccccc4nc2-3)cc1`, the EC50 [7] was > 120 µM (not active) and the EC50 [8] was 17.7 µM (active).

With `Cc1c(C(=O)N2CCC(Cc3ccccc3)CC2)sc2ncnc(N3CCC(C)CC3)c12` the EC50 [9] was > 60 µM (not active), the EC50 [1] was 60 µM (active) and the EC50 [2] was 3.68 µM (active). For the same compound, the EC50 [10] was 1.68 µM (active) and the EC50 [3] was 11.6 µM (active).

With `Nc1c2c(nc3ccccc13)CCN(Cc1ccccc1)C2` the EC50 [11] was > 53 µM (inactive).

For `Cc1noc(C)c1CSCC(=O)Nc1nc2ccc(Oc3ccccc3)cc2s1`, the EC50 [1] was > 150 µM (not active), the EC50 [2] was 16.9 µM (active) and the EC50 [3] was 4.32 µM (active).

In the case of `O=C(CC(=O)c1ccccc1)Nc1cccnc1Cl`, the EC50 [7] was 8.38 µM (active) and the EC50 [8] was 61.9 µM (active).

In the case of `NC(=S)c1ccc[n+]([C@@H]2O[C@@H](COP(=O)([O-])OP(=O)(O)OC[C@@H]3O[C@@H](n4cnc5c(N)ncnc54)[C@@H](OP(=O)(O)O)[C@H]3O)[C@@H](O)[C@H]2O)c1`, the AC50 [6] was 39.8 µM (inconclusive).

In the case of `Cc1ccc(C)c(Cn2cnc3c(cnn3C(C)(C)C)c2=O)c1`, the AC50 [12] was 0.794 µM (inconclusive) and the AC50 [6] was 10 µM (inconclusive).

In the case of `CN1CCC(N(C)C(=O)c2sc3cc(F)ccc3c2Cl)CC1`, the EC50 [9] was > 60 µM (not active) and the EC50 [10] was 0.197 µM (active).

In the case of `COc1cccc(CNC(=O)CCC2CCCN(Cc3cc4ccccc4o3)C2)c1` (centres undefined), the EC50 [9] was > 60 µM (not active) and the EC50 [10] was 0.103 µM (active).

With `CC(C)CN1CC[C@@]2(CCCN(C(=O)Oc3ccccc3)C2)C1` the AC50 [4] was 31.6 µM (inconclusive) and the AC50 [6] was 15.8 µM (inconclusive).

With `COC(=O)[C@@]1(Cc2ccc(OC)cc2)[C@H]2c3cc(C(=O)N4CCCC4)n(CCN4CNCC4=O)c3C[C@H]2CN1C(=O)c1ccccc1` the AC50 [6] was 31.6 µM (inconclusive).

In the case of `Cc1nc2ccccc2c(=O)n1NC(=O)/C=C/c1ccccc1Cl`, the EC50 [7] was 84.4 µM (active) and the EC50 [8] was 12.2 µM (active).

For `Cc1nn(C)c(Cl)c1CN1CCCC(C(=O)Nc2ccc(-c3cscn3)cc2)C1` (centres undefined), the EC50 [1] was > 150 µM (not active), the EC50 [2] was > 150 µM (not active) and the EC50 [3] was > 150 µM (not active).
